Assay results from patent US11130959B2, “Methods and compositions for combinations of mutations associated with herbicide resistance/tolerance in rice” (priority 2016, dated 2021).

What was measured:
[1] = test system: rice lines RTA1, RTA2, RTA1+RTA2, RTA1+HPPD; assay: Field trial with increasing doses of FOP herbicides, all trait combinations; format: in vivo, Oryza sativa
Source text: 4 weeks post preflood application. […] FIG. 21E graphical representation.

[2] = test system: rice line RTA1 (ML0831265-01493, G2096S); assay: Field trait tolerance trial, FOP herbicides applied sequentially at 2-leaf and pre-flood; format: in vivo, Oryza sativa; conditions: for injury rates: RTA1, 2× application rates
Source text: (§1) FIG. 20A-FIG. 20D showing % Injury response data and plot pictures. Material tested included ACCase-inhibitor resistant combined ACCase lines (RTA1+RTA2), the RTA1 and the RTA2 singles and the stack RTA1+HPPDi+HPPDni. Two applications (at the 2 leaf and pre-flood stage) used the same rate for both applications. […] (all images taken 4 weeks post preflood app), FIG. 20D Plat order (left to right) RTA1, RTA2, RTA1+RTA2, RTA1+HPPD i+HPPDni, P1003, R0146.
(§2) FIG. 21A-FIG. 21E, show plot pictures and % Injury response for ACCase lines RTA1, RTA2, and the stacks RTA1+RTA2 as well as the stack […], when challenged by increasing doses of the main FOP herbicides. […] FIG. 21A untreated control, FIG. 21B 4× Quizalofop, FIG. 21C 4× Fluazifop, FIG. 21D 4× Propaquizafop. 4 weeks post preflood application. Plot order (left to right) G2096S, RTA2, G2096S+RTA2, G2096S+HPPD, P1003, R0146. FIG. 21E graphical representation.
Yield response after sequential 2-leaf and pre-flood quizalofop application.
(§3) Evaluation of the novel herbicide resistance genes, subject of this application, was conducted with a range of suitable herbicide doses that cover application rates typically used for rice farming operations while also taking into consideration possible deviations from the manufacturer-recommended doses. Considering 1×, the recommended manufacturers or best practice recommended dose, the most frequently evaluated additional doses are 2× and 4× with some experiments including other values.

[3] = test system: rice line RTA1+RTA2 (RL1225468, double homozygous stack); assay: as above
Source text: as §1, §2, §3

[4] = test system: rice line PL1214418M2-73009 and new lines that inherited the ACCase tolerance; assay: Trial of recovery of ACCase tolerance in the combined line; format: in vivo, Oryza sativa; conditions: 0.5×, 1×, 2×, 4× of label rate
Method: Another trial was conducted to confirm recovery of the ACCase inhibitor resistance from the RTA1 mutation as in the line ML0831265-01493. In this trial the new line PL1214418-73009 with combined HPPD and ACCase tolerance was planted in a row along with other various lines including the original donor line ML0831265-01493 (planted in a plot), ML0831266-03093, P1003, R0146 parent line for ACCase tolerance. The lines were all tested with the ACCase herbicides fluazifop at 0.5×, 1×, 2×, and 4× multiples of the label application rate (210 gmai/ha) and quizalofop at 0.5×, 1×, 2×, and 4× multiples of the label application rate (77 gmai/ha).

[5] = test system: common weeds in rice (grass weeds such as barnyard grass); assay: Weed control in rice crops; format: in vivo; conditions: in vivo
Method: FIGS. 5A and 5B are photographs of results of trait tolerance trials; weed control by mesotrione herbicide applied pre-planting was evaluated; the plots were planted with a hybrid of the HPPD tolerant line ML0831266-03093; just before planting, the plot on the right FIG. 5B received an application of mesotrione at 210 gmai/ha; the plot on the left FIG. 5A had no herbicide applied either pre-plant or post-emergence; pictures were taken four weeks after planting showing differences in weed appearance.
While testing the tolerant lines, the parent lines were also tested to serve as controls and as an indication of commercial potential as a red rice/wild weedy rice control strategy.
Rice is tolerant to certain ACCase inhibitor herbicides, for example cyhalofop is registered for use in rice. However other ACCase herbicides kill or severely injure rice to varying degrees. […] The applied rates of both types of herbicides giving the weed control are well within the tolerance level of the respective ACCase and HPPD tolerant lines including the combined lines carrying tolerance to both HPPD and ACCase herbicides.

[6] = test system: mutant plants carrying RTA2 (R0146 X ML-083126502283F2); assay: MutMap F2 population herbicide response scoring; format: in vivo, Oryza sativa; conditions: 3 week old plants, scored 21 days after spray
Source text: A MutMap population was F2 plants from a cross between rice line R0146 X ML-083126502283F2. Pictures were taken 16 days post herbicide spray.
The herbicide Quizalofop was sprayed on the test fields. […] The plants were scored first at 16 days after the herbicide spray and then at 21 days after herbicide spray.
Mutant plants carrying the ‘unknown mutation RTA2’ were resistant. 3 week old plants were sprayed with Quizalofop and the herbicide response was scored 21 days after the spray. Susceptible symptoms were already observed 7 days after the Quizalofop spray, but scoring was done at 21 days. […] Few plants scored 3 (little damage on leaves or new leaf growth observed, and most likely plants will survive) or score 5 (half of the canopy is damaged and hard to predict whether the plants will survive or not), or score 7 (more damage on leaves, plants will not survive).

[7] = test system: rice line ML0831265-02283 (RTA2); assay: Field validation of tolerance to ACCase herbicide, percent injury 21 days after application; format: in vivo, Oryza sativa; conditions: 2× and 4× of labeled rate (77 gmai/ha), four leaf stage
Source text: After screening a large mutant population, the line ML0831265-02283 also survived application of the ACCase herbicide quizalofop. The line was increased to obtain sufficient seed for larger trials to evaluate its tolerance to ACCase herbicides. The tolerance to ACCase herbicides in line ML0831265-02283 was validated by planting in the field plots (5 feet by 10 feet) of the line, the non-mutant parent line R0146, a second non-mutant line P1003, and the ACCase tolerant line ML0831265-01493. The ACCase herbicide quizalofop was applied at the four leaf stage at 0.5×, 1×, 2×, and 4× multiples of the labeled rate (77 gmai/ha). Twenty one days after the herbicide was applied the plots were evaluated for percent injury caused to the rice based on control plots that had no herbicide application (FIG. 6). The data confirms the tolerance of line ML0831265-02283 and it may even carry more tolerance than line ML0831265-01493 as shown by less injury at the 2× and 4× rates of quizalofop.

`CC(C)=NOCCOC(=O)[C@@H](C)Oc1ccc(Oc2cnc3cc(Cl)ccc3n2)cc1` [Propaquizafop] was tested, and the “rates of injury compared with other FOP herbicides” value ([1]; across all trait combinations) was “highest rates of injury” and the injury rates [2] was about 40%.

With `CC(Oc1ccc(Oc2ccc(C(F)(F)F)cn2)cc1)C(=O)O` (stereo not shown) [Fluazifop] the “usability on the crop” value ([1]; rates of 2× or less, any trait combination containing RTA1) was “viable”, the injury ([3]; RTA1+RTA2, 4×, FIG. 21 trial) was “minimal injury” and the “rates of injury compared with the other FOP herbicides” value ([2]; RTA1) was “much lower than either of the other FOP herbicides”. The “tolerance compared with donor line ML0831265-01493” value [4] was “equivalent tolerance” and the “control of common grass weeds, such as barnyard grass, in rice” value [5] was “good control”.

For `CC(Oc1ccc(Oc2cnc3cc(Cl)ccc3n2)cc1)C(=O)O` (stereo not shown) [Quizalofop], the injury ([3]; RTA1+RTA2, 4× label rate, 4 weeks post preflood application) was “no injury”, the injury ([3]; RTA1+RTA2, high application rates, FIG. 21 trial) was “minimal” and the “maximum dose tolerated with no phytotoxicity” value ([3]; double homozygous RTA1-RTA2, 2-leaf stage) was 80 oz/acre. The herbicide response [6] was “resistant”, the yield ([2]; RTA1, 1× and 2× application rates) was “good yield retention” and the injury rates [2] was about 40%. The “tolerance compared with donor line ML0831265-01493” value [4] was “equivalent tolerance”, the “percent injury compared with line ML0831265-01493” value [7] was “less injury” and the “control of common grass weeds, such as barnyard grass, in rice” value [5] was “good control”.
